Experiment in all cases: MIC, liquid medium test tube series dilution test
One assay concerns E. coli A 261. Format: cell-based. The note with it: E. coli A 261, 24 hours, 37°C. The gist of the method:
(§1)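 Read-out: visual turbidity after 24 h at 37°C. The MIC, in units/ml, corresponds to the non-turbid tube in a liquid-medium test tube dilution series prepared in complete nutrient medium.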

For assay [1], the system named is Streptoc. faec. ATCC 9790. Format: cell-based. The note with it: Strep. faec. (Enterococcus) ATCC 9790, 24 hours, 37°C. A digest of the protocol:
as §1

The next assay relates to E. coli 183/58. It counts as cell-based. The note with it: E. coli 183/58, 24 hours, 37°C. The gist of the method:
as §1

Another assay relates to E. coli C 165. Format: cell-based. The note with it: E. coli C 165, 24 hours, 37°C. A digest of the protocol: as §1
Another assay relates to Klebsiella 63. It counts as cell-based. The note with it: Klebsiella 63, 24 hours, 37°C. The gist of the method:
as §1

The next assay relates to Klebsiella K 10. It counts as cell-based. The note with it: Klebsiella K 10, 24 hours, 37°C. The gist of the method:
as §1

Another assay deals with E. coli 14. Format: cell-based. The note with it: E. coli 14, 24 hours, 37°C. A digest of the protocol: as §1
Another assay deals with Staph. aureus 1777 E. It counts as cell-based, Staphylococcus aureus. The note with it: 24 hours, 37°C. A digest of the protocol: as §1
The next assay has as its system Staph. aureus 133. Format: cell-based, Staphylococcus aureus. The note with it: Staph. aureus 133, 24 hours, 37°C. The gist of the method: as §1
For the next assay, the system named is Proteus vulg. 1017. It counts as cell-based, Proteus vulgaris. The note with it: Proteus vulg. 1017, 24 hours, 37°C. The gist of the method:
as §1

A further assay concerns Proteus vulg. 3400. It counts as cell-based, Proteus vulgaris. The note with it: Proteus vulg. 3400, 24 hours, 37°C. A digest of the protocol: as §1
The next assay relates to Psdm. aerug. Bonn. Format: cell-based, Pseudomonas aerug. The note with it: 24 hours, 37°C. A digest of the protocol:
as §1

In a further assay the test system is Psdm. aerug. Walter. Format: cell-based, Pseudomonas aerug. The note with it: 24 hours, 37°C. A digest of the protocol: as §1

`Cc1ccc(C(NC(=O)N2CCNC2=O)C(=O)N[C@@H]2C(=O)N3[C@@H]2SC(C)(C)[C@@H]3C(=O)O)cc1` (stereo partly drawn) [Example 46, Sodium α-[(imidazolidin-2-on-1-yl)-carbonylamino]-p-methylbenzylpenicillin]: the MIC is on record as greater than 400 units/ml against E. coli A 261; 50 units/ml in [1]; 12,5 units/ml in the assay on E. coli 183/58; 50 units/ml against E. coli C 165; 50 units/ml against Klebsiella 63; 100 units/ml with Klebsiella K 10. In addition, the MIC is reported as 6,25 units/ml against E. coli 14; 200 units/ml against Staph. aureus 1777 E; 1,56 units/ml against Staph. aureus 133; 25 units/ml in the assay on Proteus vulg. 1017; 50 units/ml in the assay with Proteus vulg. 3400; 25 units/ml against Psdm. aerug. Bonn. The MIC in the assay on Psdm. aerug. Walter was found to be 25 units/ml.

Consider `CC1(C)S[C@@H]2[C@H](NC(=O)C(NC(=O)N3CCNC3=O)c3ccc(Cl)cc3)C(=O)N2[C@H]1C(=O)O` (stereo partly drawn) [Example 47, Sodium α-[(imidazolidin-2-on-1-yl)-carbonylamino]-p-chloro benzylpenicillin], for which the MIC with E. coli A 261 is reported as greater than 400 units/ml; in assay [1] it was 50 units/ml; in the assay with E. coli 183/58, 6,25 units/ml; with E. coli C 165, 25 units/ml; in the assay on Klebsiella 63, 50 units/ml; in the assay on Klebsiella K 10, 100 units/ml. Further, the MIC is listed as 3,12 units/ml in the assay on E. coli 14; 200 units/ml in the assay with Staph. aureus 1777 E; < 0,78 units/ml in the assay with Staph. aureus 133; 50 units/ml in the assay on Proteus vulg. 1017; 100 units/ml with Proteus vulg. 3400; 12,5 units/ml in the assay on Psdm. aerug. Bonn. In addition, the MIC against Psdm. aerug. Walter is 12,5 units/ml.

`CC1(C)S[C@@H]2[C@H](NC(=O)[C@H](NC(=O)N3CCNC3=O)c3ccccc3)C(=O)N2[C@H]1C(=O)O` [Example 51, Sodium D(-)-α-[(imidazolidin-2-on-1-yl)-carbonylamino]-benzylpenicillin]: the MIC in the assay with E. coli A 261 is recorded as 400 units/ml; in [1], 25 units/ml; against E. coli 183/58, 12,5 units/ml; against E. coli C 165, 12,5 units/ml; with Klebsiella 63 it was 50 units/ml; against Klebsiella K 10 it was 100 units/ml. In addition, the MIC was 3,12 units/ml against E. coli 14; 400 units/ml with Staph. aureus 1777 E; < 0,78 units/ml in the assay on Staph. aureus 133; 25 units/ml with Proteus vulg. 1017; 25 units/ml in the assay on Proteus vulg. 3400; 12,5 units/ml against Psdm. aerug. Bonn. In addition, in the assay on Psdm. aerug. Walter, the MIC is on record as 12,5 units/ml.

On to `CC1(C)S[C@@H]2[C@H](NC(=O)[C@H](NC(=O)N3CCNC3=O)c3ccccc3)C(=O)N2[C@H]1C(=O)O` [Example 53, D(-)-α-[(Imidazolidin-2-on-1-yl)-carbonylamino]-benzylpenicillin], for which the MIC against E. coli A 261 is 400 units/ml; in [1], 12,5 units/ml; against E. coli 183/58 it was 12,5 units/ml; against E. coli C 165, 6,25 units/ml; with Klebsiella 63, 25 units/ml; with Klebsiella K 10, 50 units/ml. For the same compound, the MIC is given as 3,12 units/ml against E. coli 14; 200 units/ml in the assay with Staph. aureus 1777 E; < 0,78 units/ml against Staph. aureus 133; 6,25 units/ml in the assay on Proteus vulg. 1017; 12,5 units/ml against Proteus vulg. 3400; 6,25 units/ml in the assay on Psdm. aerug. Bonn. The MIC against Psdm. aerug. Walter is on record as 12,5 units/ml.

The values above are taken from US3974140A, “Ureidoacetamido-penicillins” (Bayer Aktiengesellschaft, priority 1970, dated 1976).
